Data as given in US7098337B2, “1,2,3,4,9,9a-hexahydro-2,4a,5-triaza-fluorene and 1,2,3,4-tetrahydro-2,4a,5-triaza-fluorene derivatives” (priority 2002, dated 2006).

Tests used:
[1] = biological target: T1, human 5-HT2B receptors (Homo sapiens, UniProt P41595); experiment: Binding to the 5-HT2B receptor, [3H]-5-HT, CHO cell line (Method (b)); settings: human 5-HT2B in CHO cell line, read-out: Ki (2B)
T1 construct: expressed in transfected cells; host or cells: CHO cell line
Description: (§1) The binding of compounds of formula (I) to serotonin receptors was determined in vitro by standard methods. The activity of the test compounds was investigated in accordance with the assays given below.
Method (b): For the binding to the 5-HT2B receptor, the 5-HT2B receptors were radiolabeled with [^3H]-5-HT. The affinity of the compounds for human 5-HT2B receptors in a CHO cell line was determined according to the procedure of K. Schmuck, C. Ullmer, P. Engels and H. Lubbert, FEBS Lett., 1994, 342, 85–90.

[2] = biological target: T2, 5-HT2C receptor (Homo sapiens, UniProt P28335); experiment: Functional activity, FLIPR calcium assay, CHO cells expressing human 5-HT2C; type: cell-based; design: expressed in transfected cells; host or cells: CHO cells; settings: for h5-HT2C Rel. Eff.: relative efficacy vs response to 10 μM 5-HT (defined as 100%)
Description: (§2) The functional activity of compounds of formula (I) was assayed using a Fluorimetric Imaging Plate reader (FLIPR). CHO cells expressing the human 5-HT2C or human 5-HT2A receptors were counted and plated into standard 96 well microtitre plates on the day before testing to give a confluent monolayer. The cells were then dye loaded with the calcium sensitive dye, Fluo-3-AM. Unincorporated dye was removed using an automated cell washer to leave a total volume of 100 μL/well of assay buffer (Hanks balanced salt solution containing 20 mM Hepes and 2.5 mM probenecid). The drug (dissolved in 50 μL of the assay buffer) was added at a rate of 70 μL/sec to each well of the FLIPR 96 well plate during fluorescence measurements. The measurements were taken at 1 sec intervals and the maximum fluorescent signal was measured (approx 10–15 secs after drug addition) and compared with the response produced by 10 μM 5-HT (defined as 100%) to which it was expressed as a percentage response (relative efficacy). Dose response curves were constructed using Graphpad Prism (Graph Software Inc.).

[3] = biological target: T3, 5-HT2A receptor (Homo sapiens, UniProt P28223); experiment: Functional activity, FLIPR calcium assay, CHO cells expressing human 5-HT2A; type: cell-based; design: expressed in transfected cells; host or cells: CHO cells; settings: for EC50: FLIPR, CHO cells expressing human 5-HT2A, read-out: h5-HT2A EC50; for h5-HT2A Rel. Eff.: relative efficacy vs response to 10 μM 5-HT (defined as 100%)
Description: as §2

[4] = biological target: T2, 5-HT2C receptor; experiment: Binding to the 5-HT2C receptor, [3H]-5-HT, CHO cell line (Method (a)); design: expressed in transfected cells; host or cells: CHO cell line
Description: as §1
Method (a): For the binding to the 5-HT2C receptor, the 5-HT2C receptors were radiolabeled with [^3H]-5-HT. The affinity of the compounds for 5-HT2C receptors in a CHO cell line was determined according to the procedure of D. Hoyer, G. Engel and H. O. Kalkman, European J. Pharmacol., 1985, 118, 13–23.

[5] = biological target: T3, 5-HT2A receptor; experiment: Binding to the 5-HT2A receptor, [125I]-DOI, CHO cell line (Method (c)); design: expressed in transfected cells; host or cells: CHO cell line; settings: read-out: Ki (2A)
Description: as §1
Method (c): For the binding to the 5-HT2A receptor, the 5-HT2A receptors were radiolabeled with [^125I]-DOI. The affinity of the compounds for 5-HT2A receptors in a CHO cell line was determined according to the procedure of D. J. McKenna and S. J. Peroutka, J. Neurosci., 1989, 9, 3482–90.

T2 sequence (P28335 33-458): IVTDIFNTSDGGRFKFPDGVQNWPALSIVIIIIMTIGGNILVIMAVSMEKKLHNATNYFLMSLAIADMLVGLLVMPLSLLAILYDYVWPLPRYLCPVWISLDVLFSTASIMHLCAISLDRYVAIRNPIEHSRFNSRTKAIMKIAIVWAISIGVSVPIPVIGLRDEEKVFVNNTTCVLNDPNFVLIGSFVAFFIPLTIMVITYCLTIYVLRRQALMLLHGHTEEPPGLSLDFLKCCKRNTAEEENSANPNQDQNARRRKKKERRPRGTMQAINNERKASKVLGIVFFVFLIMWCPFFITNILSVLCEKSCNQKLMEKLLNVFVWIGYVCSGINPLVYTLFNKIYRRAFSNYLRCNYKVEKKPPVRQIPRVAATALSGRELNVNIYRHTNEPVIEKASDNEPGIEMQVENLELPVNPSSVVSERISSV
T3 sequence (P28223 whole entry): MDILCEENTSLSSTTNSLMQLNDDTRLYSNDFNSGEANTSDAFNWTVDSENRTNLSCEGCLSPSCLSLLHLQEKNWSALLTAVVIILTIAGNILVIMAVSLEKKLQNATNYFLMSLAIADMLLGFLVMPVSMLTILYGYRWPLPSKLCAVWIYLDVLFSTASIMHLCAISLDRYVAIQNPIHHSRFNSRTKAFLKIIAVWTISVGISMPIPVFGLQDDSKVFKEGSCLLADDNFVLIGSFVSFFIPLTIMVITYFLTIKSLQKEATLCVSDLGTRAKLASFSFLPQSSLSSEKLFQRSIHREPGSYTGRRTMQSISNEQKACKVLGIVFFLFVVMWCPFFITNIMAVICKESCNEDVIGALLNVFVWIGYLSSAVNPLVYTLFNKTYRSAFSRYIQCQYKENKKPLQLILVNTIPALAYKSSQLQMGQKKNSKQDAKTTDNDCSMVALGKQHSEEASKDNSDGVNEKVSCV
T1 sequence (P41595 whole entry): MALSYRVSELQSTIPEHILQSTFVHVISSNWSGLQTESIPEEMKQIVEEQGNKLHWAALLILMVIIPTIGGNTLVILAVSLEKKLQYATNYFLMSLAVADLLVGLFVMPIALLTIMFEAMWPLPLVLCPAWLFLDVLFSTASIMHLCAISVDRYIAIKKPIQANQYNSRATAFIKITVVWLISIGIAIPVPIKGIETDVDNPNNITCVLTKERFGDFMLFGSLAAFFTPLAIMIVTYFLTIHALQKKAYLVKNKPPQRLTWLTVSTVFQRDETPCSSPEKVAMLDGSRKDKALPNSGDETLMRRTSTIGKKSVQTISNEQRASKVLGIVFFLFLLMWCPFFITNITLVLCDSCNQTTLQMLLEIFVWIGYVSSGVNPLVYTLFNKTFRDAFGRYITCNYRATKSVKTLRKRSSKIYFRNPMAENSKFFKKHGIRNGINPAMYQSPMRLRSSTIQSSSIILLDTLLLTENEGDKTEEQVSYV

SMILES: CCc1ccc2c(n1)N1[C@@H](CNC[C@H]1C)C2 [Example 9, (4R,9aR)-6-Ethyl-4-methyl-1,2,3,4,9,9a-hexahydro-2,4a,5-triaza-fluorene]
- Ki [1]: 271 nM
- EC50 [2]: 85.4 nM
- h5-HT2C Rel. Eff. [2]: 91.4%
- EC50 [3]: 644 nM
- h5-HT2A Rel. Eff. [3]: 29.6%
- Ki [4]: 16.5 nM
- Ki [5]: 212 nM

SMILES: Cc1c2n(c3nc(Cl)ccc13)[C@H](C)CNC2 [Example 20, (R)-6-Chloro-4,9-dimethyl-1,2,3,4-tetrahydro-2,4a,5-triaza-fluorene]
- Ki [1]: 108 nM
- EC50 [2]: 7.6 nM
- h5-HT2C Rel. Eff. [2]: 93.3%
- EC50 [3]: 11.1 nM
- h5-HT2A Rel. Eff. [3]: 12.0%
- Ki [4]: 5.1 nM
- Ki [5]: 178 nM
